Target: USP30 (Homo sapiens (Human), UniProt Q70CQ3)
Assay: USP30 biochemical IC50 assay
Details: not given
Experimental: USP30 Biochemical IC50 Assay
Dilution plates were prepared at 21 times the final concentration (2100 μM for a final concentration of 100 μM) in 50% DMSO in a 96-well polypropylene V-bottom plate (Greiner #651201). A typical 8-point dilution series to be 100, 30, 10, 3, 1, 0.3, 0.1, 0.03 μM final. Reactions were performed in duplicate in black 384 well plates (small volume, Greiner 784076) in a final reaction volume of 21 μl. Either 1 μl of 50% DMSO or diluted compound was added to the plate. USP30 was diluted in reaction buffer (40 mM Tris, pH 7.5, 0.005% Tween 20, 0.5 mg/ml BSA, 5 mM beta-mercaptoethanol) to the equivalent of 0.05 μl/well and 10 μl of diluted USP30 was added to the compound. Enzyme and compound were incubated for 30 min at room temp. Reactions were initiated by the addition of 50 nM of TAMRA labelled peptide linked to ubiquitin via an iso-peptide bond as fluorescence polarisation substrate. Reactions were read immediately after addition of substrate and following a 2 hr incubation at room temperature. Readings were performed on a Pherastar Plus (BMG Labtech). λ Excitation 540 nm; λ Emission 590 nm.

Chain of USP30 (Q70CQ3 57-517): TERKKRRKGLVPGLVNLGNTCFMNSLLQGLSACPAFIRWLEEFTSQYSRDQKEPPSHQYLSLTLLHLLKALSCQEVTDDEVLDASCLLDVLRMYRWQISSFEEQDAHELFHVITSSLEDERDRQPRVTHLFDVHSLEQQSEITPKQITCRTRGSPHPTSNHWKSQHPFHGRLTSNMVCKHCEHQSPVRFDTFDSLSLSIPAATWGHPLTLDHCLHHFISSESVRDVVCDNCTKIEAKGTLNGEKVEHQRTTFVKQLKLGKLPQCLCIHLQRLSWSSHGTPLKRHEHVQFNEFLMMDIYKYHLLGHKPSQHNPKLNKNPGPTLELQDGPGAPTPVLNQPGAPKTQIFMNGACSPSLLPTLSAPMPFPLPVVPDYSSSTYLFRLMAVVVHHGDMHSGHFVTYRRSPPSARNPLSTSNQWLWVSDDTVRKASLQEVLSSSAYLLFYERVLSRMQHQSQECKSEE

Structure (SMILES) | IC50 [nM]
N#CN1CCC(CNC(=O)c2nn(Cc3ccc(Cl)cc3Cl)c3ccccc23)C1 (stereo not shown) [Example 28, N-((1-Cyanopyrrolidin-3-yl)methyl)-1-(2,4-dichlorobenzyl)-1H-indazole-3-carboxamide] | < 100

Same assay, conditions: fluorescence polarisation, TAMRA labelled peptide linked to ubiquitin; 30 min pre-incubation, 2 hr read; read-out: IC50 range

Structure (SMILES) | IC50 [nM]
N#CN1CC[C@H](CNc2ncc3ccc(-c4cn[nH]c4)cc3n2)C1 [Example 12, (R)-3-(((7-(1H-Pyrazol-4-yl)quinazolin-2-yl)amino)methyl)pyrrolidine-1-carbonitrile] | 1000 to 10000
N#CN1C[C@H]2CN(c3ncc(-c4ccccc4)s3)C(=O)[C@H]2C1 [Example 54, (3aR,6aS)-4-Oxo-5-(5-phenylthiazol-2-yl)hexahydropyrrolo[3,4-c]pyrrole-2(1H)-carbonitrile] | 1000 to 10000
N#CN1CC[C@H](CNC(=O)c2cn(Cc3ccccc3)cn2)C1 [Example 78, (R)-1-Benzyl-N-((1-cyanopyrrolidin-3-yl)methyl)-1H-imidazole-4-carboxamide] | 100 to 1000
Cc1nn(C)cc1-c1ccc(NCC2CCN(C#N)C2)c(F)c1 (stereo not shown) [Example 15, 3-(((4-(1,3-Dimethyl-1H-pyrazol-4-yl)-2-fluorophenyl)amino)methyl)pyrrolidine-1-carbonitrile] | 1000 to 10000
COc1cccc(-n2cnc(C(=O)NC[C@H]3CCN(C#N)C3)c2)c1 [Example 74, (R)—N-((1-Cyanopyrrolidin-3-yl)methyl)-1-(3-methoxyphenyl)-1H-imidazole-4-carboxamide] | 100 to 1000
Cn1cc(-c2ccc3nc(C(=O)NCC4CCN(C#N)C4)cn3c2)cn1 (stereo not shown) [Example 39, N-((1-Cyanopyrrolidin-3-yl)methyl)-6-(1-methyl-1H-pyrazol-4-yl)imidazo[1,2-a]pyridine-2-carboxamide] | 1000 to 10000
N#Cc1cccc(-c2nnc(C(=O)NC[C@H]3CCN(C#N)C3)o2)c1 [Example 68, (R)-5-(3-Cyanophenyl)-N-((1-cyanopyrrolidin-3-yl)methyl)-1,3,4-oxadiazole-2-carboxamide] | < 100
N#CN1CCC(CNc2cc(-c3ccccc3)ccn2)C1 (stereo not shown) [Example 5, 3-(((4-Phenylpyridin-2-yl)amino)methyl)pyrrolidine-1-carbonitrile] | 100 to 1000
N#CN1CC[C@H](CNC(=O)c2cn3cc(-c4ccn[nH]4)ccc3n2)C1 [Example 76] | 1000 to 10000
N#Cc1ccc2cnc(NCC3CCN(C#N)C3)cc2c1 (stereo not shown) [Example 16, 3-(((1-Cyano-pyrrolidin-3-yl)methyl)amino) isoquinoline-6-carbonitrile] | 1000 to 10000
N#CN1CC[C@H](CNC(=O)c2nc3ccccc3[nH]2)C1 [Example 56] | 1000 to 10000
CC(Nc1cc2cc(C#N)ccc2cn1)C1CCN(C#N)C1 (stereo not shown) [Example 51, 3-((1-(1-Cyanopyrrolidin-3-yl)ethyl)amino)isoquinoline-6-carbonitrile] | 1000 to 10000
N#CN1CC[C@H](CNc2ncc(-c3ccccc3)s2)C1 [Example 9, (R)-3-(((5-Phenylthiazol-2-yl)amino)methyl)pyrrolidine-1-carbonitrile] | < 100
N#CN1CC[C@H](CNC(=O)c2cc3ccccc3cn2)C1 [Example 57] | 1000 to 10000
N#CN1CC[C@@H](CNc2nccc(-c3ccccc3)n2)C1 [Example 19, (S)-3-(((4-Phenylpyrimidin-2-yl)amino)methyl)pyrrolidine-1-carbonitrile] | 1000 to 10000
N#Cc1cccc(-n2cnc(C(=O)NC[C@H]3CCN(C#N)C3)c2)c1 [Example 71, (R)-1-(3-Cyanophenyl)-N-((1-cyanopyrrolidin-3-yl)methyl)-1H-imidazole-4-carboxamide] | < 100
CC(Nc1cc2ccccc2cn1)C1CCN(C#N)C1 (stereo not shown) [Example 50, 3-(1-(Isoquinolin-3-ylamino)ethyl)pyrrolidine-1-carbonitrile] | 1000 to 10000
COc1ccc(/C=C/C(=O)NCC2CCN(C#N)C2)c(F)c1 (stereo not shown) [Example 32, (E)-N-((1-Cyanopyrrolidin-3-yl)methyl)-3-(2-fluoro-4-methoxyphenyl)acrylamide] | 100 to 1000
N#CN1CC[C@@H](CNc2ncc(-c3ccccc3)s2)C1 [Example 10, (S)-3-(((5-Phenylthiazol-2-yl)amino)methyl)pyrrolidine-1-carbonitrile] | 100 to 1000
N#CN1CCC(CNC(=O)c2cc(N3CCCC3)ccn2)C1 (stereo not shown) [Example 27, N-((1-Cyanopyrrolidin-3-yl)methyl)-4-(pyrrolidin-1-yl)picolinamide] | 100 to 1000
CC(Nc1nc2ccc(C#N)cc2s1)C1CCN(C#N)C1 (stereo not shown) [Example 53, 2-((1-(1-Cyanopyrrolidin-3-yl)ethyl)amino)benzo[d]thiazole-6-carbonitrile] | 1000 to 10000

Reference: patent US11130748B2, “Compounds” (MISSION THERAPEUTICS LIMITED, priority 2015, dated 2021)
